Data taken from ChEMBL document CHEMBL1158365, “Alkyne chemistry in crop protection” (2009).
≈ marks a conversion by molar mass, not a printed value.

What was measured:
Assay type in all cases: functional
[1] = tested on: Abutilon theophrasti; test: Herbicidal activity against Abutilon theophrasti
[2] = tested on: Ipomoea purpurea; test: Herbicidal activity against Ipomoea purpurea
[3] = tested on: Phytophthora infestans; test: Antioomycetic activity against Phytophthora infestans
[4] = tested on: Plasmopara viticola; test: Antioomycetic activity against Plasmopara viticola

| SMILES | ED85 [1] | ED85 [2] | EC80 [3] | EC80 [4] |
| --- | --- | --- | --- | --- |
| CC(C)Cn1c(=O)ccc2cc(F)c(-n3c(=O)cc(C(F)(F)F)n(C)c3=O)cc21 | 10 g/ha | 30 g/ha | – | – |
| C#CCOc1ccc(CCNC(=O)C(OC(C)C)c2ccc(Cl)cc2)cc1OC (centres undefined) | – | – | 3.1 µg/mL (≈ 7.45 µM) | 10.1 µg/mL (≈ 24.3 µM) |
| Cn1c(C(F)(F)F)cc(=O)n(-c2cc3[nH]c(=O)ccc3cc2F)c1=O | 30 g/ha | 30 g/ha | – | – |
| C#CCOc1ccc(CCNC(=O)C(OCC#CC)c2ccc(Cl)cc2)cc1OC (centres undefined) | – | – | 18.3 µg/mL (≈ 43 µM) | 14 µg/mL (≈ 32.9 µM) |
| C#CCOc1ccc(CCNC(=O)C(OCCF)c2ccc(Cl)cc2)cc1OC (centres undefined) | – | – | 4.7 µg/mL (≈ 11.2 µM) | 8.9 µg/mL (≈ 21.2 µM) |
| C#CCOc1ccc(CCNC(=O)C(OC(=O)CC#N)c2ccc(Cl)cc2)cc1OC (centres undefined) | – | – | 3.1 µg/mL (≈ 7.03 µM) | 4.9 µg/mL (≈ 11.1 µM) |
| C#CCOc1ccc(CCNC(=O)C(OC)c2ccc(Cl)cc2)cc1OC (centres undefined) | – | – | 9.7 µg/mL (≈ 25 µM) | 3.5 µg/mL (≈ 9.02 µM) |
| Cn1c(C(F)(F)F)cc(=O)n(-c2cc3c(ccc(=O)n3C)cc2F)c1=O | 10 g/ha | 10 g/ha | – | – |
| C#CCOc1ccc(CCNC(=O)C(OCC#C)c2ccc(Cl)cc2)cc1OC (centres undefined) [MANDIPROPAMID] | – | – | 0.1 µg/mL (≈ 0.243 µM) | 1.2 µg/mL (≈ 2.91 µM) |
| CCCn1c(=O)ccc2cc(F)c(-n3c(=O)cc(C(F)(F)F)n(C)c3=O)cc21 | 10 g/ha | 30 g/ha | – | – |
| C#CCOc1ccc(CCNC(=O)C(OC(=O)CC)c2ccc(Cl)cc2)cc1OC (centres undefined) | – | – | 4.2 µg/mL (≈ 9.77 µM) | 2.8 µg/mL (≈ 6.51 µM) |
| C#CCOc1ccc(CCNC(=O)C(O)c2ccc(Cl)cc2)cc1OC (centres undefined) | – | – | 34.6 µg/mL (≈ 92.6 µM) | 10.4 µg/mL (≈ 27.8 µM) |
| C#CCOc1ccc(CCNC(=O)C(OC(=O)OC)c2ccc(Cl)cc2)cc1OC (centres undefined) | – | – | 38.6 µg/mL (≈ 89.4 µM) | 110 µg/mL (≈ 254 µM) |
| Cn1c(C(F)(F)F)cc(=O)n(-c2cc3c(ccc(=O)n3CC#N)cc2F)c1=O | 10 g/ha | 30 g/ha | – | – |
| C#CCOc1ccc(CCNC(=O)C(OCC)c2ccc(Cl)cc2)cc1OC (centres undefined) | – | – | 4.6 µg/mL (≈ 11.4 µM) | 2 µg/mL (≈ 4.98 µM) |
| C#CCOc1ccc(CCNC(=O)C(OCC=C)c2ccc(Cl)cc2)cc1OC (centres undefined) | – | – | 44.1 µg/mL (≈ 107 µM) | 18.6 µg/mL (≈ 44.9 µM) |
| CCn1c(=O)ccc2cc(F)c(-n3c(=O)cc(C(F)(F)F)n(C)c3=O)cc21 | 3 g/ha | 10 g/ha | – | – |
| C#CCn1c(=O)ccc2cc(F)c(-n3c(=O)cc(C(F)(F)F)n(C)c3=O)cc21 | 1 g/ha | 3 g/ha | – | – |
| C=CCn1c(=O)ccc2cc(F)c(-n3c(=O)cc(C(F)(F)F)n(C)c3=O)cc21 | 1 g/ha | 3 g/ha | – | – |
| C#CCOc1ccc(CCNC(=O)C(OCCC)c2ccc(Cl)cc2)cc1OC (centres undefined) | – | – | 5.4 µg/mL (≈ 13 µM) | 31 µg/mL (≈ 74.5 µM) |
| COC(=O)Cn1c(=O)ccc2cc(F)c(-n3c(=O)cc(C(F)(F)F)n(C)c3=O)cc21 | 10 g/ha | 100 g/ha | – | – |
| C#CCOc1ccc(CCNC(=O)C(OC(C)(C)C#C)c2ccc(Cl)cc2)cc1OC (centres undefined) | – | – | 4.9 µg/mL (≈ 11.1 µM) | 3.5 µg/mL (≈ 7.96 µM) |
